Laboratory results published in patent publication US20260263429A1, “INHIBITORS OF CA 2+/CALMODULIN-DEPENDENT PROTEIN KINASE II (CAMKII) THAT DO NOT INHIBIT LONG-TERM POTENTIATION (LTP) INDUCTION AND THERAPEUTIC USES THEREOF” (The Regents of the University of Colorado, A Body Corporate, priority 2023, published 2026).

Legend:
[1] = tested on: LTP in CaMKIIα knockout slices; experiment: LTP induction in slices of CaMKIIα knockout mice injected with AAV-mScarlet (mock) or AAV-mScarlet-CaMKII F89G; format: cell-based, mouse
Protocol: Specifically, in one exemplary method, pharmacogenetic rescue of LTP with NM-PP1 was tested in hippocampal slices expressing the CaMKII F89G mutant. For this purpose, mScarlet-labeled CaMKII F89G mutant were re-expressed in the hippocampal CA1 region of CaMKIIα knockout mice. This was done by stereotactic injection of a packaged adeno-associated virus (AAV) construct in which the expression of either mScarlet alone or the mScarlet-labeled mutant CaMKII is controlled by the CaMKIIα promoter (FIG. 5A). After 5 weeks of expression, acute slices were prepared and evaluated for proper localization of expression by imaging of mScarlet fluorescence (FIG. 5A and FIG. 11A). […] As expected, NM-PP1 had no effect on the residual LTP in these control slices (FIGS. 5B-5C and FIG. 11B). By contrast, in slices expressing the CaMKII F89G mutant, LTP was completely abolished (FIGS. 5D-5E), consistent with residual LTP being further suppressed by the dominant negative effect (on the remaining minor CaMKIIβ isoform in the CaMKIIα knockout) that is exerted by a CaMKII mutant with impaired ATP-binding and thereby is deficient in both activity and GluN2B binding. […] Thus, two independent lines of pharmacogenetic evidence topple current dogma by directly supporting the conclusion that LTP induction is linked to structural rather than enzymatic functions of CaMKII.
AAV Production. […]

[2] = tested on: LTP at the hippocampal CA3 to CA1 synapse; experiment: LTP induction by HFS, field recordings in acute hippocampal slices of wildtype mice; format: cell-based, mouse; conditions: tatCN21 5 μM; AS283 10 or 30 μM; 15 minutes before, washed out 5 minutes after LTP induction
Protocol: Long term potentiation (LTP) is induced by high frequency stimulation (HFS; 2×100 Hz. 10 sec interval, see Materials and Methods) of CA3-CA1 Schaffer collateral pathways in WT mice and is observed by an increase in slope of field excitatory post synaptic potentials (fEPSPs) that persists after the stimulus is removed. When testing the effect of certain agents on LTP induction (i.e., AS283 or tatCN21), slices were incubated with the agents for 15 minutes before LTP induction and washed out 5 minutes after LTP induction.
Hippocampal slice preparation. WT and mutant mouse hippocampal slices were prepared using P56-70 mice. Isoflurane anesthetized mice were rapidly decapitated, and the brain was dissected in ice-cold high sucrose solution containing 220 mM sucrose, 12 mM MgSO4, 10 mM glucose, 0.2 mM CaCl2), 0.5 mM KCl, 0.65 mM NaH2PO4, 13 mM
NaHCO3, and 1.8 mM ascorbate. […]
Extracellular field recordings. […] Data were analyzed using WinLTP software with slope calculated as the initial rise from 10 to 60% of response peak. […] Responses were recorded for 60 min after HFS. Change in slope was calculated as a ratio of the average slope of the 20 min baseline (before HFS). Bar graphs of % fEPSP slope were calculated by averaging the 50-60-minute timepoints post HFS and normalized to baseline.

Compound	residual LTP in CaMKIIα knockout slices expressing mScarlet control ([1]; NM-PP1)	LTP induction in CaMKIIα knockout slices expressing CaMKII F89G ([1]; NM-PP1 10 μM)	LTP induction in wildtype mouse slices [2]
CC(C)(C)n1nc(Cc2cccc3ccccc23)c2c(N)ncnc21 [NM-PP1]	no effect	LTP induction was enabled	
NCCNc1cccc(-c2ccnc3[nH]c4ccccc4c23)c1 [AS283]			failed to block LTP induction
